Counter-ions that a name gives are not always drawn. Like-named read-outs stand apart in the source and are kept apart here. No end group written: not given here. Me3 = trimethyl (trimethyl-lysine)
Tests used:
MV4-11 = assay: cells; parameters: species or system MV4-11; U251; conditions: for viability at 10 µM: Homo sapiens, read-out: % viability; for % viability: 10 µM
Method: (§1) Compound information and source are listed in data S9. For Cpd_DC60, the initial small scale was obtained from the NCI Developmental Therapeutics Program (NCI/DTP) Open Chemicals Repository. Additional Cpd_DC60 was then custom synthesized by Ambinter (Orléans, France). MV4-11 cells were seeded at 20,000 cells per well, and U251 cells were seeded at 10,000 cells per well. Cells were cultured in 96-well plates at 100 μl per well and replated with fresh medium and compound every 3 days for up to 9 days. At each time point, 15 μl of the CellTiter-Glo 2.0 assay reagent (G9242, Promega) and 20 μl of resuspended cells were mixed in white flat-bottom 96-well plates (353296, Corning), and subsequently, the resultant luminescence was measured using an Infinite M1000 Pro plate reader (Tecan Trading AG, Switzerland). The relative CellTiter Glo signal was normalized to the control condition (DMSO) at each reading time point. Next, we examined the response of SGF29-dependent MV4-11 leukemia cells and the SGF29-independent U251 glioblastoma cells (see Fig. 1H) to these 190 candidate compounds (plus 15 reference compounds) using a CellTiter Glo screen. […] Compared to the pan-cancer inhibitors I-BET151 [inhibits the bromodomain of Bromodomain and Extra-Terminal motif (BET)] ([36]) and JQ1 (blocks BRD4 bromodomain) ([10]), we observed several known leukemia-targeting compounds (EPZ-5676, OICR-9429, A-485, and A-366) ([37]–[40]) within the 19 MV4-11 selective inhibitors (detailed in fig. S7A). On the basis of the selective killing against MV4-11 (Δ Score, i.e., differential CellTiter Glo % between MV4-11 and U251 on day 9), we then chose the top six ranked candidate compounds (Cpd_DC60, 201, 11, 157, 182, and 21) for further investigation (fig. S7B). […] Identification of SGF29 lead inhibitor by CRISPR-SADD workflow. (A) Schematic outline of the Sgf29 high-density CRISPR tiling scan in MLL-AF9-Cas9^+ cells. (B) Two-dimensional annotation of Sgf29 CRISPR-Scan. The blue line indicates the smoothened model of the CRISPR-Scan score derived from 147 sgRNAs (dots) targeting the coding exons of Sgf29. The median NCS scores of the positive control (red dotted line; defined as −1.0) and negative control (green dotted line; defined as 0.0) sgRNAs are highlighted. The blue dashed box indicates the SGF29-TTD domain. (C) Three-dimensional annotation Sgf29 CRISPR-Scan score relative to an x-ray crystal structural model of human SGF29-TTD (PDB ID: 3ME9). The CRISPR hypersensitive (red) aromatic cage of SGF29 Tudor_2 domain is highlighted. (D) Docking box (cube) defined by overlapping the PrankWeb predicted ligandable protein surface (surface contour marked by the dotted pink-line) with the CRISPR hypersensitive region of SGF29-TTD (red areas). (E) Heatmap showing the relative CellTiter Glo signal [% to dimethyl sulfoxide (DMSO) control] of MV4-11 and U251 cells incubated with 205 selected compounds (10 μM) for 3, 6, and 9 days. The effective killing was defined as less than 10% relative CellTiter Glo signal on day 9. Four clusters of compounds are identified, including the U251 selective (7 cpds), noneffective (157 cpds), general toxic (22 cpds), and MV4-11 selective (19 cpds) groups. (F and G) Western blot of (F) MOLM13 cells and (G) MV4-11 cells incubated with Cpd_DC60 (20 μM) for 48 hours. (H) Effect of Cpd_DC60 on the SGF29-TTD/H3K4me3 AlphaScreen signal. (I) Left: Docking simulation model of SGF29-TTD (colored by NCS) interacts with Cpd_DC60 (yellow). Right: Overlap of SGF29-TTD/H3K4me3 (cyan) cocrystal structure (PDB ID: 3ME9) with the predicted Cpd_DC60 (yellow) binding post on SGF29-TTD. The “aromatic cage” that consists of Y238, Y245, and F264 is indicated. a.a., amino acid. IC50, median inhibitory concentration.

U251 (U-251) = assay: cells; parameters: species or system MV4-11; U251; conditions: for viability at 10 µM: Homo sapiens, read-out: % viability; for % viability: 10 µM
Method: as §1

[1] = target: T1, recombinant His6-tagged SGF29 tandem Tudor domain (SGF29-TTD), residues Met114 to Lys293 (human, UniProt Q96ES7 114-293); assay: AlphaScreen or HTRF; AlphaScreen Histidine (Nickel Chelate) Detection Kit; 75 nM SGF29-TTD, 150 nM H3(1-18)K4me3-bio, 0.8% DMSO, acceptor/donor beads 20 ug/ml; 50 mM Hepes, 100 mM NaCl, 5 mM TCEP, pH 7.4; 25 C, 3 hours; signal blocked by the small molecule Cpd_DC60; conditions: both partners purified
T1 construct: SAGA-associated factor 29 (SGF29), human, tandem Tudor domain, residues Met114 to Lys293, UniProt Q96ES7; 22.9 kDa with the tag; Codon-optimised cDNA with synonymous changes only; No tag cleavage is described; the chain is detected by the nickel chelate AlphaScreen beads; The forward primer carries the end of a TEV site (ENLYFQS) from the vector before Met114; also called SGF29_Tudor 2; …
T1 sequence (looked up): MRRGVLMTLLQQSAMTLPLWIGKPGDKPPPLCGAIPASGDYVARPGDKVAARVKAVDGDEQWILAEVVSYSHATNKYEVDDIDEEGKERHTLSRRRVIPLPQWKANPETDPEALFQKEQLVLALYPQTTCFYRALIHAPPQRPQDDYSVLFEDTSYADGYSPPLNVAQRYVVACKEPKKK

Molecule: Cc1ccc2nc(-c3ccc(N4C(=O)C5C6c7ccccc7C(c7ccccc76)C5C4=O)cc3)sc2c1 (stereo not shown) [compound 23, ZINC000008935041]
- viability at 10 µM (MV4-11; MV4-11, 72 h): 41.6%
- viability at 10 µM (MV4-11; MV4-11, 144 h): 14.8%
- viability at 10 µM (MV4-11; MV4-11, 216 h): 4.43%
- viability at 10 µM (U251 (U-251); U-251, 72 h): 87.4%
- viability at 10 µM (U251 (U-251); U-251, 144 h): 48.7%
- viability at 10 µM (U251 (U-251); U-251, 216 h): 11%

Molecule: CC(C)(C)NCCCNC(=O)c1cccc(Br)c1 [compound 31, UNC2170 trifluoroacetate]
- viability at 10 µM (MV4-11; MV4-11, 72 h): 120%
- viability at 10 µM (MV4-11; MV4-11, 144 h): 93.1%
- viability at 10 µM (MV4-11; MV4-11, 216 h): 125%
- viability at 10 µM (U251 (U-251); U-251, 72 h): 111%
- viability at 10 µM (U251 (U-251); U-251, 144 h): 110%
- viability at 10 µM (U251 (U-251); U-251, 216 h): 106%

Molecule: CCC[C@H](NC(=O)[C@@H]1[C@H]2CCC[C@H]2CN1C(=O)[C@@H](NC(=O)[C@@H](NC(=O)c1cnccn1)C1CCCCC1)C(C)(C)C)C(=O)C(=O)NC1CC1 [compound 76, Telaprevir (VX-950)]
- % viability (MV4-11; day 3, 72 h): 12.16%
- % viability (MV4-11; day 6, 144 h): 1.882%
- % viability (MV4-11; day 9, 216 h): 0.2706%
- % viability (U251 (U-251); day 3, 72 h): 49.36%
- % viability (U251 (U-251); day 6, 144 h): 17.7%
- % viability (U251 (U-251); day 9, 216 h): 2.593%

Molecule: COc1cc2c(cc1-c1c(C)noc1C)ncc1[nH]c(=O)n([C@H](C)c3ccccn3)c12 [compound 78, I-BET151]
- viability at 10 µM (MV4-11; MV4-11, 72 h): 0.356%
- viability at 10 µM (MV4-11; MV4-11, 144 h): 0.218%
- viability at 10 µM (MV4-11; MV4-11, 216 h): 0.24%
- viability at 10 µM (U251 (U-251); U-251, 72 h): 14.5%
- viability at 10 µM (U251 (U-251); U-251, 144 h): 0.804%
- viability at 10 µM (U251 (U-251); U-251, 216 h): 0.227%

Molecule: O=C(Cc1ccccc1)Nc1ccc2oc(-c3ccc4ccccc4c3)nc2c1 [compound 172, ZINC000001204199]
- viability at 10 µM (MV4-11; MV4-11, 72 h): 114%
- viability at 10 µM (MV4-11; MV4-11, 144 h): 101%
- viability at 10 µM (MV4-11; MV4-11, 216 h): 78.6%
- viability at 10 µM (U251 (U-251); U-251, 72 h): 108%
- viability at 10 µM (U251 (U-251); U-251, 144 h): 107%
- viability at 10 µM (U251 (U-251); U-251, 216 h): 112%

Molecule: Nc1c(Br)cc([N+](=O)[O-])cc1Br [compound 240, ZINC000001641734]
- viability at 10 µM (MV4-11; MV4-11, 72 h): 95.7%
- viability at 10 µM (MV4-11; MV4-11, 144 h): 86.7%
- viability at 10 µM (MV4-11; MV4-11, 216 h): 89%
- viability at 10 µM (U251 (U-251); U-251, 72 h): 110%
- viability at 10 µM (U251 (U-251); U-251, 144 h): 106%
- viability at 10 µM (U251 (U-251); U-251, 216 h): 115%

B1: H3(1-18)K4me3-bio (biotinylated H3K4me3) peptide (peptide, UniProt P68431 2-19, looked up)
peptide: ARTK(Me3)QTARKSTGGKAPRK
modifications: also: biotin, position not given here
notes: histone H3, residues 1-18, trimethylated at lysine 4; source: synthetic peptide (Thermo Fisher Scientific)
- binding result [1]: binds
